Laboratory results published in ChEMBL document CHEMBL1136026, “4,4'-Benzophenone-O,O'-disulfamate: a potent inhibitor of steroid sulfatase” (Bioorg Med Chem Lett, 2002).

Molecular target: T1, Steryl-sulfatase (Homo sapiens, UniProt P08842)
T1 sequence (P08842 whole entry): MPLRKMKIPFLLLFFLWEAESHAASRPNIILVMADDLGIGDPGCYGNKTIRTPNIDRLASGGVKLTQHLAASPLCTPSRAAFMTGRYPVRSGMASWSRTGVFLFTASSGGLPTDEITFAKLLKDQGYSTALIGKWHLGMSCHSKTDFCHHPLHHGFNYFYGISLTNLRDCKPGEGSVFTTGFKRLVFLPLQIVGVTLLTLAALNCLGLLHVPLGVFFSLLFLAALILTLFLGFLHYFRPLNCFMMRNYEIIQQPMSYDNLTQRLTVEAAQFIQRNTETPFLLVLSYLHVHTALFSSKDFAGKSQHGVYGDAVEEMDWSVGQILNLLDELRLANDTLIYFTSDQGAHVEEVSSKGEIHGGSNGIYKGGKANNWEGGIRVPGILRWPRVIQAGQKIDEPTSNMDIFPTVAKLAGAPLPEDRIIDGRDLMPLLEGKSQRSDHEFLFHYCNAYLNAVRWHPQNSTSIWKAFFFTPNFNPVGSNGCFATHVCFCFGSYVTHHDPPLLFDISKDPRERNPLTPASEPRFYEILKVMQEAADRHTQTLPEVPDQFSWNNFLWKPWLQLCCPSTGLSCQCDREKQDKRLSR
Test: Inhibition of human steroid sulfatase compared to EMATE

| IC50 | Structure (SMILES) |
| --- | --- |
| 5.1 µM | NS(=O)(=O)Oc1ccc(C(=O)c2ccccc2)cc1 |
| 6.9 µM | NS(=O)(=O)Oc1cccc(C(=O)c2cccc(O)c2)c1 |
| 5 µM | NS(=O)(=O)Oc1cccc(C(=O)c2ccc(O)cc2)c1 |
| 5.7 µM | NS(=O)(=O)Oc1cccc(C(=O)c2ccccc2)c1 |

Second part, the molecule before the results:

| Structure (SMILES) | IC50 |
| --- | --- |
| COc1cccc(C(=O)c2cccc(OS(N)(=O)=O)c2)c1 | 7.1 µM |
| COc1ccc(C(=O)c2cccc(OS(N)(=O)=O)c2)cc1 | 6.9 µM |
| COc1cccc(C(=O)c2ccc(OS(N)(=O)=O)cc2)c1 | 5.2 µM |
| NS(=O)(=O)Oc1cccc(C(=O)c2cccc(OS(N)(=O)=O)c2)c1 | 3.2 µM |
| NS(=O)(=O)Oc1ccc(C(=O)c2cccc(OS(N)(=O)=O)c2)cc1 | 0.78 µM |
| NS(=O)(=O)Oc1ccc(C(=O)c2ccccc2O)cc1 | 4.6 µM |
| COc1ccccc1C(=O)c1ccc(OS(N)(=O)=O)cc1 | 4.8 µM |
| NS(=O)(=O)Oc1ccc(C(=O)c2ccc(OS(N)(=O)=O)cc2)cc1 | 0.19 µM |
| C[C@]12CC[C@@H]3c4ccc(OS(N)(=O)=O)cc4CC[C@H]3[C@@H]1CCC2=O [EMATE] | 0.056 µM |
